Data as given in paper PMC8861878 (The Journal of pharmacy and pharmacology, 2020).

Experiments:
Type in all cases: in vitro ADME
UGT1A9 = target: T1, UGT1A9 (Homo sapiens, UniProt O60656); assay: Glucuronidation of isobavachin by recombinant UGT1A9, enzyme kinetics; conditions: formation of G1, substrate inhibition model
T1 sequence (O60656 26-530): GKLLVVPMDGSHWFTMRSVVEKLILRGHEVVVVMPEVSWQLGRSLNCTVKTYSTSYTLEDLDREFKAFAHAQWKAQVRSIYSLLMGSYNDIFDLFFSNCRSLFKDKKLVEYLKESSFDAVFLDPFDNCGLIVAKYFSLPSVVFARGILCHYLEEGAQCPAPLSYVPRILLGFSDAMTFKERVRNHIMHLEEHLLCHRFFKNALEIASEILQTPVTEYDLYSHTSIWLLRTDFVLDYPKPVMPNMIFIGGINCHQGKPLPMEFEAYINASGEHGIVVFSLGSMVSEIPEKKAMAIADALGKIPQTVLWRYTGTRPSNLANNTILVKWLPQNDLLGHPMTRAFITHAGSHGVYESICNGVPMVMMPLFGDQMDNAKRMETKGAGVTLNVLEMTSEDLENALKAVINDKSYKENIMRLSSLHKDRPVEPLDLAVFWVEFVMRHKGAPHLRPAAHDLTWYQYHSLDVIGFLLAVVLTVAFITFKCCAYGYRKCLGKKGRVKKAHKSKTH

UGT1A1 = target: T2, UGT1A1 (Homo sapiens, UniProt P22309); assay: Inhibition of UGT1A1
T2 sequence (P22309 26-533): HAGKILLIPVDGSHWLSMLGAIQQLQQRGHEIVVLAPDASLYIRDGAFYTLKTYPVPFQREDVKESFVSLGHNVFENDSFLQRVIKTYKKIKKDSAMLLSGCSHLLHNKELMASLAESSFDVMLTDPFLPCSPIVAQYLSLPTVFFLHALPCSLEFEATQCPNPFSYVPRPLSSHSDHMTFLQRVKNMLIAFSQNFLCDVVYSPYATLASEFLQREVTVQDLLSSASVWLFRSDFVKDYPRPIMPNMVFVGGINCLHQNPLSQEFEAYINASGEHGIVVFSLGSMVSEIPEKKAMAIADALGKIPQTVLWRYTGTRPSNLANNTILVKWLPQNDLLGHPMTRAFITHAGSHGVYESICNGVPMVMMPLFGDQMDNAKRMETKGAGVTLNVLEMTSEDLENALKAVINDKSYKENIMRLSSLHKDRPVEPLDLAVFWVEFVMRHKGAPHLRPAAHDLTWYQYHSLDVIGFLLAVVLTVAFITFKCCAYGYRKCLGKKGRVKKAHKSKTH

CYP2B6 = target: T3, CYP2B6 (Homo sapiens, UniProt P20813); assay: Inhibition of CYP2B6
T3 sequence (P20813 1-491): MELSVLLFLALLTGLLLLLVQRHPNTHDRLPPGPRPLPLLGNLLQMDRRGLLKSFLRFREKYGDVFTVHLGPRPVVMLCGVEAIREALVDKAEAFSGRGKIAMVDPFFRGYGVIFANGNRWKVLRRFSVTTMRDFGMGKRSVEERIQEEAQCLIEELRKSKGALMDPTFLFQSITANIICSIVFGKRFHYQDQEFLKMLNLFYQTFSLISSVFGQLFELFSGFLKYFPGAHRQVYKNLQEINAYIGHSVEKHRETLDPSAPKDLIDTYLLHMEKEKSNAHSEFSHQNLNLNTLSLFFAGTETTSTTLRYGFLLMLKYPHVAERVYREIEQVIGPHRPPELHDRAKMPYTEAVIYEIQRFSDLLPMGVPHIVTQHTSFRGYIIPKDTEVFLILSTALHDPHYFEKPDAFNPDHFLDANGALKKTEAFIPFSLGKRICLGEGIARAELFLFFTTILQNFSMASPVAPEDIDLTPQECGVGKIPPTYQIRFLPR

UGT2B7 = target: T4, UGT2B7 (Homo sapiens, UniProt P16662); assay: Inhibition of UGT2B7
T4 sequence (P16662 24-529): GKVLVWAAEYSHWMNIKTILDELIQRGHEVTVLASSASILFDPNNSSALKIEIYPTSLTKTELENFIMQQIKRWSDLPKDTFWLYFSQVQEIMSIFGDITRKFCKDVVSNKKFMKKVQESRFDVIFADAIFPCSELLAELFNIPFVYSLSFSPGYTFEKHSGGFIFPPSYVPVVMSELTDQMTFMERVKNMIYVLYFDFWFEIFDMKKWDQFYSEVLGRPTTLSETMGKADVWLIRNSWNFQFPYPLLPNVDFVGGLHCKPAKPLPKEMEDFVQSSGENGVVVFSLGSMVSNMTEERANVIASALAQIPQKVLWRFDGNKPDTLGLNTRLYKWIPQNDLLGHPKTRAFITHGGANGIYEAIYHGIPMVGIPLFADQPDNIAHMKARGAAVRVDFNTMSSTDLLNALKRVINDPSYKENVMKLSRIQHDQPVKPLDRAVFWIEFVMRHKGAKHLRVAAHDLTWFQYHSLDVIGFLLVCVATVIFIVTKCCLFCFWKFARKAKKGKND

[1] = based on the smallest AIC and SC values

SMILES: CC(C)=CCc1c(O)ccc2c1O[C@H](c1ccc(O)cc1)CC2=O [isobavachin]
- Ki (UGT1A9; substrate inhibition constant): 38.39 ± 8.88 µM
- CLint (CLmax) (UGT1A9): 202.62 ± 48.80 μl/min per mg
- Vmax (UGT1A9): 3167.00 ± 426.4 pmol/min per mg
- IC50 (UGT1A1): 1.53 ± 0.39 µM
- residual activities (UGT1A1; 10 μM isobavachin): 4.58 % of the negative control
- Ki (UGT1A1; Ki, substrate estradiol, competitive model (selected, smallest AIC and SC)): 3.05 ± 0.41 µM
- Inhibition type (UGT1A1; [1]): competitive inhibition
- α (UGT1A1; substrate estradiol, mixed-type model): 8.01 ± 2.56
- IC50 (CYP2B6): 5 ± 0.48 µM
- residual activities (CYP2B6; 10 μM isobavachin): 30.86 % of the negative control
- Ki (CYP2B6; substrate bupropion, competitive model (not selected)): 0.35 ± 0.11 µM
- Ki (CYP2B6; substrate bupropion, mixed-type model (not selected)): 1.46 ± 0.62 µM
- Ki (CYP2B6; substrate bupropion, non-competitive model (selected, smallest AIC and SC)): 1.93 ± 0.18 µM
- Inhibition type (CYP2B6; [1]): non-competitive inhibition mode
- α (CYP2B6; substrate bupropion, mixed-type model): 1.49 ± 0.92
- IC50 (UGT2B7): 0.09 ± 0.01 µM
- residual activities (UGT2B7; 10 μM isobavachin): 19.32 % of the negative control
- Ki (UGT2B7; substrate zidovudine, mixed-type model (not selected)): 0.04 ± 0.01 µM
- Ki (UGT2B7; substrate zidovudine, non-competitive model (selected, smallest AIC and SC)): 0.05 ± 0.01 µM
- Inhibition type (UGT2B7; [1]): non-competitive inhibition mode
- α (UGT2B7; substrate zidovudine, mixed-type model): 1.80 ± 0.93
